The first assay addresses T1, MEK1^CA (human GST-MEK1, constitutively active, Ser218Asp and Ser222Asp) (Homo sapiens, UniProt Q02750, S218D/S222D).
T1 construct: GST; made in house; host or cells: Escherichia coli
In words: MEK1 enzymatic activity assay (MEK1^CA / ERK2 / MBP, [γ-33P]ATP incorporation). The assay is classed as biochemical. The following applies: Table 1, compounds of formula I; read-out: Avg IC50. The method in brief: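 Cascade assay: 25 µl reactions with 0.002 nmol E. coli-expressed GST-MEK1 S218D/S222D, 0.02 nmol His-tagged mouse ERK2, 0.25 nmol MBP, 0.25 nmol unlabeled ATP and 0.1 µCi [γ-33P]ATP. Compound preincubated 30 min at ambient temperature with MEK1/ERK2; stopped with TCA, 33P-labelled protein filter-captured and scintillation-counted.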
T1 sequence (Q02750 whole entry S218D/S222D): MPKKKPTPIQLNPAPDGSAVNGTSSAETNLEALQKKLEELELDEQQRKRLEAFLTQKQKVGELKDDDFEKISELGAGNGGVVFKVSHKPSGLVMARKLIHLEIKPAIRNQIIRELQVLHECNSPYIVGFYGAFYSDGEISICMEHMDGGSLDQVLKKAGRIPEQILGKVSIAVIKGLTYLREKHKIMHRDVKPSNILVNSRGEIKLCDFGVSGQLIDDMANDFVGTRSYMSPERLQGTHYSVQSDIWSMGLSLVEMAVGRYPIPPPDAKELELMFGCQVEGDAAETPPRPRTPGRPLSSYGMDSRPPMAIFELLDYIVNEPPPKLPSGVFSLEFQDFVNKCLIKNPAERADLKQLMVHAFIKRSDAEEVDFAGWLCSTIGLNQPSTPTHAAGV
As for `Cc1cc(Oc2cccc(F)c2F)ccc1Nc1snc(O)c1C(=N)NC(CO)C(C)C` (stereo not drawn) [compound 503], the IC50 lay within 100 to 500 nM.

With `CCC(CO)NC(=N)c1c(O)nsc1Nc1ccc(Oc2cccc(F)c2F)cc1C` (stereo not drawn) [compound 504], the IC50 lay within 100 to 500 nM. Still for that read-out and setting: next, `COCCNC(=N)c1c(O)nsc1Nc1ccc(Oc2cccc(F)c2F)cc1C` [compound 505]: 1 to 100 nM; `CC[C@@H](CO)NC(=N)c1c(O)nsc1Nc1ccc(Oc2cccc(C(F)(F)F)c2)cc1C` [compound 506]: 100 to 500 nM; `CC(O)CNC(=N)c1c(O)nsc1Nc1ccc(Oc2ccccc2C(=O)NCC(C)O)cc1` (stereo not drawn) [compound 507]: over 500 nM. Same read-out and setting: under `N=C(NCC(O)CO)c1c(O)nsc1Nc1ccc(Oc2ccccc2C(=O)NCC(O)CO)cc1` (stereo not drawn) [compound 508] stands over 500 nM; under `CC(CO)NC(=N)c1c(O)nsc1Nc1ccc(-c2nc3ccccc3[nH]2)cc1` (stereo not drawn) [compound 509], over 500 nM.

`CC(O)CNC(=N)c1c(O)nsc1Nc1ccc(-c2nc3ccccc3[nH]2)cc1` (stereo not drawn) [compound 510]: the IC50 is over 500 nM. Same read-out and setting: under `N=C(NCCO)c1c(O)nsc1Nc1ccc(-c2nc3ccccc3[nH]2)cc1` [compound 511] stands over 500 nM; under `N=C(NCC(O)CO)c1c(O)nsc1Nc1ccc(-c2nc3ccccc3[nH]2)cc1` (stereo not drawn) [compound 512], over 500 nM.

The assay is the same for the next values; noted with them: Table 3, benzamides of formula X; read-out: IC 50.
Turning to `N=C(NCCO)c1c(O)nsc1Nc1ccc(C(=O)Nc2ccccc2)cc1` [drawing 809], the IC50 is 100 to 500 nM. On the same count and under the same terms, next, `CC(C)NC(=N)c1c(O)nsc1Nc1ccc(C(=O)Nc2ccccc2)cc1` [drawing 810]: 1 to 100 nM; `N=C(NCC1CCCCC1)c1c(O)nsc1Nc1ccc(C(=O)Nc2ccccc2)cc1` [drawing 811]: over 500 nM; `CC(CO)NC(=N)c1c(O)nsc1Nc1ccc(C(=O)Nc2ccccc2)cc1` (stereo not drawn) [drawing 812]: 1 to 100 nM.

Still in this assay, the particulars now being: Table 4, R' is (CH2)1 or 2-G; read-out: IC50.
Turning to `N=C(NCCc1cnc[nH]1)c1c(O)nsc1Nc1ccc(Oc2cc(Cl)ccc2Cl)cc1`, the IC50 is 1 to 100 nM. The same measure, in the same setting: under `CC1CN(CCNC(=N)c2c(O)nsc2Nc2ccc(Oc3cc(Cl)ccc3Cl)cc2)CC(C)O1` (stereo not drawn) stands 100 to 500 nM. Still for that read-out and setting: under `N=C(NCCN1CCCC1=O)c1c(O)nsc1Nc1ccc(Oc2cc(Cl)ccc2Cl)cc1` stands 1 to 100 nM; under `N=C(NCCc1ccccc1)c1c(O)nsc1Nc1ccc(Oc2ccccc2)cc1` [drawing 821], 100 to 500 nM. On the same count and under the same terms, under `Cc1ccc(Oc2ccc(Nc3snc(O)c3C(=N)NCC3CCCCC3)cc2)cc1` [drawing 823] stands 1 to 100 nM; under `Cc1ccc(Oc2ccc(Nc3snc(O)c3C(=N)NCC3CCCCC3)cc2)cn1` [drawing 824], 100 to 500 nM; under `Cc1ccc(Oc2ccc(Nc3snc(O)c3C(=N)NCC3CCCCC3)cn2)cn1` [drawing 825], over 500 nM. With `N=C(NCC1CCCCC1)c1c(O)nsc1Nc1ccc(Sc2ccccc2)cc1` [drawing 826], the IC50 fell in the range of 1 to 100 nM. The same measure, in the same setting: next, `N=C(NCC1CCCCC1)c1c(O)nsc1Nc1ccc(Oc2cncnc2)cc1` [drawing 827]: over 500 nM; `N=C(NCC1CCCCC1)c1c(O)nsc1Nc1ccc(Oc2ccccc2)nc1` [drawing 828]: 100 to 500 nM; `N=C(NCCN1CCNCC1)c1c(O)nsc1Nc1ccc(Oc2cc(F)cc(F)c2)cc1` [drawing 829]: 1 to 100 nM.

On to `N=C(NCCN1CCOCC1)c1c(O)nsc1Nc1ccc(Oc2cc(F)cc(F)c2)cc1` [drawing 830], for which the IC50 was in the range of 100 to 500 nM. Same read-out and setting: next, `N=C(NCC1CCCCC1)c1c(O)nsc1Nc1ccc(Sc2ccc([N+](=O)[O-])cc2)cc1` [drawing 831]: 100 to 500 nM.

The subject of a further assay is phosphorylated ERK in MDA-MB-231 breast cancer cells. In words: Western blotting for phosphorylated ERK in EGF-stimulated MDA-MB-231 cells. The assay is classed as cell-based. The conditions noted are these: Homo sapiens, Table 4, compound 30 min, 100 ng/ml EGF 5 min. As for the experimental part:
Effects of compounds in the cell were determined by Western blotting for phosphorylated ERK. MDA-MB-231 breast cancer cells were plated in a 48 well plate at 20,000 cells per well and grown in a 37° humidified CO2 incubator. The following day, the growth media (DMEM+10% fetal bovine serum) was removed and replaced with starve media (DMEM+0.1% fetal bovine serum). Cells were incubated in the starve media for sixteen hours and then treated with a range of compound concentrations for thirty minutes. After incubation with compound, cells were stimulated with 100 ng/ml EGF for five minutes. The cells were then lysed and analyzed by Western blot using a monoclonal antibody raised to phosphorylated ERK. The signal was amplified using a secondary antibody conjugated to a near-IR dye and detected on a Licor Odyssey scanner.
A general note: Immunoblotting shows a protein as a band on a membrane.
For the molecule `N=C(NCCN1CCNC(=O)C1)c1c(O)nsc1Nc1ccc(Oc2cc(Cl)ccc2Cl)cc1`, the EC50 (commonly the concentration that produces a half-maximal response) was in the range of 1 to 100 nM. As to `N=C(NCCc1cnc[nH]1)c1c(O)nsc1Nc1ccc(Oc2cc(Cl)ccc2Cl)cc1`, the EC50 lay in the range of 1 to 100 nM. On the same count and under the same terms, next, `N=C(NCCN1CCOCC1)c1c(O)nsc1Nc1ccc(Oc2cc(Cl)ccc2Cl)cc1`: 1 to 100 nM.

`CC1CN(CCNC(=N)c2c(O)nsc2Nc2ccc(Oc3cc(Cl)ccc3Cl)cc2)CC(C)O1` (stereo not drawn) gave a 50% effective concentration (EC50) of 100 to 500 nM.

For `CN1CCN(CCNC(=N)c2c(O)nsc2Nc2ccc(Oc3cc(Cl)ccc3Cl)cc2)CC1`, the EC50 is 100 to 500 nM.

For the molecule `N=C(NCCN1CCCC1=O)c1c(O)nsc1Nc1ccc(Oc2cc(Cl)ccc2Cl)cc1`, the concentration giving a half-maximal response (EC50) was in the range of 100 to 500 nM. On the same count and under the same terms, under `N=C(NCC1CCCO1)c1c(O)nsc1Nc1ccc(Oc2cc(Cl)ccc2Cl)cc1` (stereo not drawn) stands 1 to 100 nM. Same read-out and setting: under `N=C(NCCN1CCNCC1)c1c(O)nsc1Nc1ccc(Oc2cc(Cl)ccc2Cl)cc1` stands 1 to 100 nM.

Consider `N=C(NCCc1ccccc1)c1c(O)nsc1Nc1ccc(Oc2ccccc2)cc1` [drawing 821], for which the concentration giving a half-maximal response (EC50) lay within 100 to 500 nM.

These data come from US7652047B2, “Phenylamino isothiazole carboxamidines as MEK inhibitors” (Ardea Biosciences, Inc., priority 2005, dated 2010).
